# From ChEMBL document CHEMBL1129760, “A topliss tree analysis of the HIV-protease inhibitory activity of 6-phenyl-4-hydroxy-pyran-2-ones” (Bioorg Med Chem Lett, 1996)
# Target: Human immunodeficiency virus type 1 protease (Human immunodeficiency virus 1, UniProt Q72874)
# Assay: Inhibitory activity against purified HIV-1 protease (BH10) at a pH of 4.7 and a final enzyme concentration of 0.45-1.1 nM
row,Compound,IC50 [nM]
1,CC(C)(C)NC(=O)[C@@H]1CCCCN1C[C@@H](O)[C@H](Cc1ccccc1)NC(=O)[C@H](CC(N)=O)NC(=O)c1ccc2ccccc2n1,10
2,CCc1cccc(-c2cc(O)c(Sc3ccccc3C(C)C)c(=O)o2)c1,262
3,CC(C)c1ccccc1Sc1c(O)cc(-c2ccccc2Cl)oc1=O,225
4,Cc1cc(C)cc(-c2cc(O)c(Sc3ccccc3C(C)C)c(=O)o2)c1,15
5,CC(C)c1ccccc1Sc1c(O)cc(-c2ccc(C#N)cc2)oc1=O,205
6,CC(C)c1ccccc1Sc1c(O)cc(-c2ccc(F)cc2)oc1=O,124
7,CC(C)c1ccccc1Sc1c(O)cc(-c2ccc(C(=O)O)cc2)oc1=O,68
8,Cc1ccc(-c2cc(O)c(Sc3ccccc3C(C)C)c(=O)o2)cc1,59
9,CC(C)c1ccccc1Sc1c(O)cc(-c2cc(Cl)cc(Cl)c2)oc1=O,26
10,CC(C)c1ccccc1Sc1c(O)cc(-c2ccc(O)c(C(=O)O)c2)oc1=O,292
11,CC(C)c1ccccc1Sc1c(O)cc(-c2ccc(Cl)c(Cl)c2)oc1=O,22
12,CC(C)c1ccccc1Sc1c(O)cc(-c2ccc(C(N)=O)cc2)oc1=O,135
13,COC(=O)c1cc(-c2cc(O)c(Sc3ccccc3C(C)C)c(=O)o2)ccc1O,62
14,CC(C)c1ccccc1Sc1c(O)cc(-c2cccc(O)c2)oc1=O,89
15,CC(C)c1ccccc1Sc1c(O)cc(-c2ccc(O)cc2)oc1=O,54
16,Cc1ccccc1-c1cc(O)c(Sc2ccccc2C(C)C)c(=O)o1,1340

row,Compound,IC50 [nM]
1,CCOC(=O)c1cc(-c2cc(O)c(Sc3ccccc3C(C)C)c(=O)o2)ccc1O,148
2,COc1ccccc1-c1cc(O)c(Sc2ccccc2C(C)C)c(=O)o1,1420
3,COC(=O)c1cccc(-c2cc(O)c(Sc3ccccc3C(C)C)c(=O)o2)c1,80
4,CC(C)c1ccccc1Sc1c(O)cc(-c2cccc(C(=O)O)c2)oc1=O,151
5,CC(C)c1ccccc1Sc1c(O)cc(-c2cccc(C(F)(F)F)c2)oc1=O,76
6,CCOC(=O)c1cccc(-c2cc(O)c(Sc3ccccc3C(C)C)c(=O)o2)c1,1930
7,CC(C)c1ccccc1Sc1c(O)cc(-c2cccc(Cl)c2)oc1=O,23
8,Cc1cccc(-c2cc(O)c(Sc3ccccc3C(C)C)c(=O)o2)c1,14
9,COc1ccc(-c2cc(O)c(Sc3ccccc3C(C)C)c(=O)o2)cc1,83
10,CCOC(=O)c1ccc(-c2cc(O)c(Sc3ccccc3C(C)C)c(=O)o2)cc1,35
11,CC(C)c1ccccc1Sc1c(O)cc(-c2ccc([N+](=O)[O-])cc2)oc1=O,191
12,CC(C)c1ccccc1Sc1c(O)cc(-c2cccc(-c3ccccc3)c2)oc1=O,38
13,CC(C)c1ccccc1Sc1c(O)cc(-c2ccc(Cl)cc2)oc1=O,76
14,CC(C)c1ccccc1Sc1c(O)cc(-c2cccc([N+](=O)[O-])c2)oc1=O,67
15,CC(C)c1ccccc1Sc1c(O)cc(-c2cccc(N(C)C)c2)oc1=O,114
